System: mouse liver microsomes, stability LC-MS/MS, 1 uM
Assay: Inhibitors of HPGD: Mouse Liver Microsome Profiling
Details: at 1 µM, active compounds read high

| half-life [min] | Compound |
| --- | --- |
| 9 | Cc1cccc(-n2cnc3cc(C(=O)N4CCCCC4)ccc32)c1 |
| 8 | Cc1cc(-c2nnc3n2CCCCC3)c(C)n1-c1ccccc1 |
